# Values of other authors as cited in US5089474A, “Novel microproteins” (Roussel Uclaf, priority 1989, dated 1992).
# Tested on: trypsin
# Details: statement in words on the known EETI II; cited from earlier work
substance,measurement,value
EETI II,property of inhibiting trypsin,inhibiting trypsin
